Laboratory results published in patent US9644006B2, “Carrier peptides for cell delivery” (priority 2011, dated 2017).
Where two headings read alike, the source gives them in different places.

System: Vero cells
Assay: Effect of cytoskeleton depolymerizing drugs on delivery peptide (DynPro) movement
Format: cell-based, African green monkey
[1] = Vero cells with 10 μM DynPro, Nocodazole 2.5 μM 30 min, LatrunculinA 0.1 μM

SMILES | effect of the drug on delivery peptide transport movement | effect of the drug on delivery peptide transport movement [1]
C/C1=C\[C@H](C)C[C@H](C)OC(=O)C[C@H](c2ccc(O)cc2)NC(=O)[C@@H](Cc2c(Br)[nH]c3ccccc23)N(C)C(=O)[C@H](C)NC(=O)[C@@H](C)C1 [Jasplakinolide] | did not inhibit this movement | 
C/C1=C/C(=O)O[C@@H]2C[C@@H](CC[C@H](C)/C=C\C=C\CC1)O[C@@](O)([C@@H]1CSC(=O)N1)C2 [LatrunculinA] |  | transport was preserved
COC(=O)Nc1nc2ccc(C(=O)c3cccs3)cc2[nH]1 [Nocodazole] |  | abolished
